From US11447486B2, “2-amino-benzimidazole derivatives and their use as 5-lipoxygenase and/or prostaglandin E synthase inhibitors” (INSTITUT PASTEUR KOREA, priority 2014, dated 2022) come the findings set out here.

For orientation: pEC50 means the negative decadic logarithm of the EC50, by convention in mol/L. The term melting point denotes the temperature, or range, at which the solid turns liquid. For orientation: pIC50 means −log10 of the IC50, conventionally taken in molar units.

pEC50, pIC50: −log10 of the molar value.

The subject of data set [1] is Rat basophilic leukemia (RBL) cells. The data set can be described thus: LTB4 secretion assay in RBL (rat basophilic leukemia cells). It is filed as cell-based. The note with it: Rattus norvegicus, RBL. The procedure, abridged:
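Cells seeded 2×10^4/well the day before, then pre-incubated 15 min at 37 °C in EMEM/0.5% FBS with compound (5 nM to 100 uM). Stimulation with 2.5 uM arachidonic acid plus 5 uM A23187 (final) for 10 min at 37 °C; LTB4 in supernatant quantified by EIA.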

For data set [2], the target named is T1, human 5-LOX (Homo sapiens, UniProt P09917).
T1 construct: purchased Cayman 60402; host or cells: insect cells (lysate)
T1 sequence (P09917 1-674): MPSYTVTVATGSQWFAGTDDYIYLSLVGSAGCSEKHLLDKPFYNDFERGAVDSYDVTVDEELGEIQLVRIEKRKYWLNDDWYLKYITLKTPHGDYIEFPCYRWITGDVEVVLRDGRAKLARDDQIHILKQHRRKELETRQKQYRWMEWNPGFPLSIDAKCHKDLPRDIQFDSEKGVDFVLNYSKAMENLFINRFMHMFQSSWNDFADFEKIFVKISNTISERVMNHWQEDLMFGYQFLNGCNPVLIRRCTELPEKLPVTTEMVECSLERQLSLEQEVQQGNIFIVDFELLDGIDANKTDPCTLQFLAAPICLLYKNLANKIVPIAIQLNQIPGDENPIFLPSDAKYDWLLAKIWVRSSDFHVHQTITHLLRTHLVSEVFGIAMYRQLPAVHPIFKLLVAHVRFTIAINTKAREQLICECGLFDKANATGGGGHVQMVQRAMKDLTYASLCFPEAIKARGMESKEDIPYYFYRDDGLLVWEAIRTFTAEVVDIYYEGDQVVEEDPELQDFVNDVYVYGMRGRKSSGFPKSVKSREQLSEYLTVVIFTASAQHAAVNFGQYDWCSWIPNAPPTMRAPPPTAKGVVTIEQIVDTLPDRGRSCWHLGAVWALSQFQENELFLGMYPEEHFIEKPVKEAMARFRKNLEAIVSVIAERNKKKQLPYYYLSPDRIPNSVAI
The data set can be described thus: 5-LOX enzyme activity, fluorescence method (5-HPETE, H2DCFDA). Format: biochemical. The note with it: read-out: 5-LO (IC50). The procedure, abridged: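 Compound (0.5 nM to 10 uM) pre-incubated 5 min with enzyme; reaction started with ATP (100 uM final) and arachidonic acid (3 uM final). All steps at room temperature, fluorescence read-out.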

The subject of data set [3] is Rat whole blood (RWB). The data set can be described thus: LTB4 secretion assay in RWB (rat whole blood). It is filed as cell-based. To be noted: Rattus norvegicus. The essentials:
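Heparinized blood from male Sprague Dawley rats (6-9 weeks) diluted 1:1 in RPMI, pre-incubated 15 min at 37 °C with compound (2.5 nM to 50 uM). Stimulated with 10 uM calcium ionophore A23187 for 10 min at 37 °C, stopped with ice-cold PBS; LTB4 in supernatant quantified by EIA.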

For `CC(C)(C)c1ccc(Oc2ccc(CNc3nc4cc(N)ccc4[nH]3)cc2)cc1` [Compound 117], the melting point was over 207.2 °C. The molecule further had a negative-log EC50 (pEC50) in data set [1] of 4.70 to 5.00. The negative logarithm of the IC50 (pIC50) in data set [2] is over 6.00.
For `Nc1ccc2[nH]c(NCc3ccc(N4CCC(c5ccc(Cl)cc5)CC4)cc3)nc2c1` [Compound 115], the melting point is over 220 °C. In addition, the pEC50 in data set [1] was under 4.70. The negative-log IC50 (pIC50) in data set [2] was over 6.00.
Regarding `Cc1cnn(-c2nc3cc(N4CCN(c5ccc(F)cc5)CC4)ccc3[nH]2)c1` [Compound 25], the melting point was over 220 °C. Moreover, in data set [2], the negative logarithm of the IC50 (pIC50) is under 5.00.
Turning to `Cn1c(NCc2ccc(Oc3ccc4cc(F)ccc4n3)cc2)nc2ccc(NC3COC3)cc21` [Compound 383], the figures for the pEC50 in data set [1] and in data set [3] were over 5.00 and under 4.70, respectively. Moreover, in data set [2], the negative-log IC50 (pIC50) is over 6.00.
As to `N#CC1(Nc2ccc3[nH]c(NCc4ccc(Oc5ccc(Cl)cc5)cc4)nc3c2)CCC1` [Compound 137], the pEC50 in data set [1] and in data set [3] was over 5.00 throughout. The negative-log IC50 (pIC50) in data set [2] was over 6.00.
With `Cn1c(NCc2ccc(OCc3ncco3)cc2)nc2ccc(NC3COC3)cc21` [Compound 343], the pEC50 was under 4.70 in data set [1] and 4.70 to 5.00 in data set [3]. The negative-log IC50 (pIC50) in data set [2] was over 6.00.
`Cn1nc(Nc2ccc3nc(NCc4ccc(Oc5ncc(C(F)(F)F)cn5)cc4)n(C)c3c2)cc1C(F)(F)F` [Compound 519]: the negative logarithm of the EC50 (pEC50) in data set [1] and in data set [3] was over 5.00 each time. Moreover, the pIC50 in data set [2] was under 5.00.
For the molecule `Cn1c(NCc2ccc(Oc3ccc(Cl)cn3)cc2)nc2ccc(Nc3cc[nH]n3)cc21` [Compound 449], the pEC50 in data set [1] and in data set [3] was over 5.00 throughout. The negative logarithm of the IC50 (pIC50) in data set [2] was over 6.00.
As for `CCC(Nc1nc2ccc(Nc3cc(C(C)C)[nH]n3)cc2n1C)c1ccc(Oc2ncc(Cl)cn2)cc1` (centres unmarked) [Compound 529], the negative logarithm of the EC50 (pEC50) in data set [1] and in data set [3] was over 5.00 throughout. Also, the negative logarithm of the IC50 (pIC50) in data set [2] was over 6.00.
As to `Cn1c(NCc2ccc(C(=O)Nc3ccc(Cl)cn3)cc2)nc2ccc(NC3COC3)cc21` [Compound 303], the negative-log EC50 (pEC50) in data set [1] and in data set [3] was under 4.70 in each case. In addition, the pIC50 in data set [2] is over 6.00.
As for `Cc1cc(Nc2ccc3nc(NCc4ccc(Oc5ccc(Cl)cn5)cc4)n(C)c3c2)n[nH]1` [Compound 466], the pEC50 in data set [1] and in data set [3] was over 5.00 in each case. The pIC50 in data set [2] was over 6.00.
Turning to `Nc1ccc2nc(NCc3ccc(C(=O)c4ccccc4)cc3)[nH]c2c1` [Compound 106], the negative-log EC50 (pEC50) in data set [1] and in data set [3] was over 5.00 in each case. Besides, in data set [2], the negative-log IC50 (pIC50) is over 6.00.
Take `Cn1c(NCc2ccc(Oc3ccc(F)cn3)cc2)nc2ccc(NC3COC3)cc21` [Compound 302]: the negative-log EC50 (pEC50) was over 5.00 in data set [1] and 4.70 to 5.00 in data set [3]. The pIC50 in data set [2] is over 6.00.
For `CC(Nc1ccc2nc(N(C)C)[nH]c2c1)c1ccc(Oc2ccc(OC(F)(F)F)cc2)nc1` (centres unmarked) [Compound 150], the pEC50 was over 5.00 in data set [1] and under 4.70 in data set [3]. The pIC50 in data set [2] is over 6.00.
As for `CC(C)(O)Cn1c(NCc2ccc(Oc3ccc(Cl)cn3)cc2)nc2ccc(N)cc21` [Compound 203], the negative-log EC50 (pEC50) in data set [1] was over 5.00; in data set [3] it was under 4.70. The pIC50 in data set [2] was over 6.00.
For the molecule `Cn1c(NCc2ccc(Oc3ncc(C#N)cn3)cc2)nc2ccc(N)cc21` [Compound 367], the pEC50 in data set [1] and in data set [3] was over 5.00 throughout. The negative logarithm of the IC50 (pIC50) in data set [2] is over 6.00.
Consider `Nc1ccc2nc(NCc3coc(-c4ccc(Cl)cc4)n3)[nH]c2c1` [Compound 175], for which the results for the pEC50 in data set [1] and in data set [3] were over 5.00 and under 4.70, respectively. Also, the pIC50 in data set [2] was over 6.00.
`Nc1ccc2[nH]c(NCc3ccc(Oc4ccc(F)c(F)c4)cc3)nc2c1` [Compound 113]: the negative-log EC50 (pEC50) in data set [1] and in data set [3] was over 5.00 each time. Further, in data set [2], the negative logarithm of the IC50 (pIC50) was over 6.00.
Turning to `Cc1[nH]nc(Nc2ccc3nc(NCc4ccc(Oc5ncc(Cl)cn5)cc4)n(C)c3c2)c1C` [Compound 474], the pEC50 in data set [1] and in data set [3] was over 5.00 throughout. For the same molecule, the pIC50 in data set [2] is over 6.00.
`FC(F)(F)CCNc1nc2ccc(NC3COC3)cc2n1Cc1ccc(Oc2ccc(Cl)cc2)cc1` [Compound 279]: the negative logarithm of the EC50 (pEC50) in data set [1] and in data set [3] was over 5.00 throughout. For the same molecule, in data set [2], the pIC50 is 5.00 to 6.00.
As to `Nc1ccc2[nH]c(NCc3ccc4ccccc4c3)nc2c1` [Compound 81], the pEC50 in data set [1] and in data set [3] was over 5.00 throughout. The pIC50 in data set [2] was over 6.00.
For `Cn1c(NCc2ccc(Oc3ccc(Cl)nc3)cc2)nc2ccc(NC3COC3)cc21` [Compound 281], the negative-log EC50 (pEC50) in data set [1] and in data set [3] was over 5.00 each time. For the same molecule, the negative-log IC50 (pIC50) in data set [2] is over 6.00.
Consider `CCC(Nc1nc2ccc(NC3COC3)cc2n1C)c1ccc(Oc2ccc(C(F)(F)F)cn2)cc1F` (centres unmarked) [Compound 550], for which the pEC50 in data set [1] and in data set [3] was over 5.00 each time. In data set [2], the pIC50 was over 6.00.
Consider `Cc1cnc(Nc2ccc3nc(NCc4ccc(Oc5ncc(Cl)cn5)cc4)n(C)c3c2)s1` [Compound 492], for which the pEC50 in data set [1] and in data set [3] was over 5.00 each time. In data set [2], the pIC50 was over 6.00.
On to `CNc1nc2ccc(N3CCC(Oc4ccc(OC(F)(F)F)cc4)C3)cc2[nH]1` (centres unmarked) [Compound 104], for which the values for the negative-log EC50 (pEC50) in data set [1] and in data set [3] were over 5.00 and under 4.70, respectively. Moreover, the pIC50 in data set [2] is over 6.00.
With `Nc1ccc2[nH]c(NCc3cccc(Oc4ccc(Cl)cc4)c3)nc2c1` [Compound 101], the negative logarithm of the EC50 (pEC50) in data set [1] and in data set [3] was over 5.00 throughout. In addition, the pIC50 in data set [2] was over 6.00.
In the case of `Nc1ccc2[nH]c(NCc3ccc(N4CCC(c5ccc(OC(F)(F)F)cc5)CC4)cc3)nc2c1` [Compound 108], the pEC50 in data set [1] and in data set [3] was under 4.70 in each case. The pIC50 in data set [2] was over 6.00.
Consider `Nc1ccc2nc(NCc3ccc(OCCC(F)(F)F)cc3)[nH]c2c1` [Compound 176], for which the negative logarithm of the EC50 (pEC50) in data set [1] and in data set [3] was over 5.00 throughout. For the same molecule, the pIC50 in data set [2] was over 6.00.
Turning to `OCCNc1nc2ccc(NC3COC3)cc2n1Cc1ccc(Oc2ccc(Cl)cn2)cc1` [Compound 251], the pEC50 in data set [1] and in data set [3] was over 5.00 each time. The pIC50 in data set [2] is over 6.00.
For the molecule `Fc1ccc(CNc2nc3ccc(N4CCC(Oc5ccc(OC(F)(F)F)cc5)C4)cc3[nH]2)cc1` (centres unmarked) [Compound 77], the values for the negative logarithm of the EC50 (pEC50) in data set [1] and in data set [3] were 4.70 to 5.00 and over 5.00, respectively. Moreover, in data set [2], the negative logarithm of the IC50 (pIC50) was over 6.00.
For `Cn1c(NCCOc2ccc(OC(F)(F)F)cc2Cl)nc2ccc(N)cc21` [Compound 56] the same measures were over 5.00, 4.70 to 5.00 and over 6.00.
For the molecule `c1ccc(Oc2ccc(CNc3nc4cc(NC5CCCC5)ccc4[nH]3)cc2)cc1` [Compound 97], the pEC50 in data set [1] and in data set [3] was over 5.00 throughout. Besides, the pIC50 in data set [2] is over 6.00.
Regarding `CCn1c(NCc2ccc(Oc3ncc(C(F)(F)F)cn3)cc2F)nc2ccc(Nc3cc(C)[nH]n3)cc21` [Compound 540], the pEC50 in data set [1] and in data set [3] was over 5.00 throughout. The negative-log IC50 (pIC50) in data set [2] was over 6.00.
Regarding `Cc1[nH]nc(Nc2ccc3nc(NCc4ccc(Oc5ncc(Cl)cn5)cc4)n(C)c3c2)c1Cl` [Compound 481], the pEC50 in data set [1] and in data set [3] was over 5.00 in each case. Moreover, the pIC50 in data set [2] is over 6.00.
On to `Nc1ccc2[nH]c(NCc3ccc(Sc4ccc(Cl)cc4)cc3)nc2c1` [Compound 92], for which the pEC50 in data set [1] and in data set [3] was over 5.00 throughout. Also, in data set [2], the negative logarithm of the IC50 (pIC50) is over 6.00.
On to `Nc1ccc2[nH]c(NCc3ccc(Oc4ccc(Cl)nc4)cc3)nc2c1` [Compound 136], for which the negative-log EC50 (pEC50) in data set [1] and in data set [3] was over 5.00 throughout. In data set [2], the pIC50 was over 6.00.
In the case of `Nc1nc2ccc(Nc3n[nH]cc3C(=O)NC3CC3)cc2n1CCOc1ccc(OC(F)(F)F)cc1` [Compound 17], the pEC50 was over 5.00 in data set [1] and under 4.70 in data set [3]. For the same molecule, in data set [2], the pIC50 is 5.00 to 6.00.
For `Cc1cc(Nc2cc(F)c3nc(NCc4ccc(Oc5ncc(Cl)cn5)cc4)n(C)c3c2)n[nH]1` [Compound 499], in that order: over 5.00, over 5.00 and over 6.00.
For `COCCNc1nc2ccc(N3CCC(Oc4ccc(OC(F)(F)F)cc4)C3)cc2[nH]1` (centres unmarked) [Compound 148] the same measures were over 5.00, under 4.70 and over 6.00.
